Results on 27 compounds are retold here after patent publication US9340501B2, “Marinopyrrole derivatives as anticancer agents” (H. LEE MOFFITT CANCER CENTER AND RESEARCH INSTITUTE, INC., priority 2012, dated 2016).

One experiment relates to MDA-MB-468 cells. Description: In vitro anticancer assay against MDA-MB-468 cells. It counts as cell-based. As to conditions: for inhibition at 0.5 µM: MDA-MB-468, 0.5 μM; for inhibition at 0.5 µM / inhibition at 50 µM / inhibition at 5 µM: read-out: % Inhibition at 0.5, 5, 50 μM; for inhibition at 50 µM: MDA-MB-468, 50 μM; for inhibition at 5 µM: MDA-MB-468, 5 μM. How it is done:
The anticancer activities of the novel asymmetrical marinopyrroles described herein were evaluated against MDA-MB-468 cells (Table 1). IC50 values are reported in μM.

In another experiment the target is Bcl-2 (Homo sapiens, UniProt P10415). As to conditions: Tse et al. 2008; cited from earlier work.
For another experiment, the target named is Mcl-1 (Homo sapiens, UniProt Q07820). As to conditions: Tse et al. 2008; cited from earlier work.
The target of the next experiment is Bcl-XL (Homo sapiens, UniProt Q07817). As to conditions: Tse et al. 2008; cited from earlier work.
Where [1] appears, read: mean of the determinations, read-out: Mean IC50.
Setting [2] is: single determinations, read-out: IC50.
Setting [3] is: Homo sapiens, MDA-MB-468, estimated from % inhibition at 0.5, 5, 50 μM, read-out: Est. IC50.
The mark [4] stands for this setting: Homo sapiens, MDA-MB-468, mean of the determinations, read-out: Mean IC50.
[5] abbreviates: Homo sapiens, MDA-MB-468, single determinations, read-out: IC50.
[6] abbreviates: estimated from % inhibition at 0.5, 5, 50 μM, read-out: Est. IC50.

Values joined by “and” are separate entries in the source; they are usually repeats but may differ in a detail not shown here. Equal values may be shown once. Read-outs that look alike come from different tables or passages of the source.

Chain of Mcl-1 (Q07820 whole entry, species assumed): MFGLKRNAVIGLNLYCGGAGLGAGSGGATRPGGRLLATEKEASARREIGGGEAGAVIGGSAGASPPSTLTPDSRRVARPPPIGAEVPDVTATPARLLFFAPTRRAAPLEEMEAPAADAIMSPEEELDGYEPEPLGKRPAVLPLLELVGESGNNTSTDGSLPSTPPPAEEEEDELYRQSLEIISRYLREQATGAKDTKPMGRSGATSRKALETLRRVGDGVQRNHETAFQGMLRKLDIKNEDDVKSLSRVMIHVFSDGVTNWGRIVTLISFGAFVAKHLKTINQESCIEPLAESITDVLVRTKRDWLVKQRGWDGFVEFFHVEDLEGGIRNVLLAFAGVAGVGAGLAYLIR
Chain of Bcl-XL (Q07817 whole entry, species assumed): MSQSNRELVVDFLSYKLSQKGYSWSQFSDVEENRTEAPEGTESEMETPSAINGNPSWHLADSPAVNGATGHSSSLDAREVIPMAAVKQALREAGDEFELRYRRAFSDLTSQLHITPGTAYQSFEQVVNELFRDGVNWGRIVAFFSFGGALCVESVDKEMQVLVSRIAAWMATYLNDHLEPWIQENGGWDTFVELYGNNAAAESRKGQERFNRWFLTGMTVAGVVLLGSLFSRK
Chain of Bcl-2 (P10415 whole entry, species assumed): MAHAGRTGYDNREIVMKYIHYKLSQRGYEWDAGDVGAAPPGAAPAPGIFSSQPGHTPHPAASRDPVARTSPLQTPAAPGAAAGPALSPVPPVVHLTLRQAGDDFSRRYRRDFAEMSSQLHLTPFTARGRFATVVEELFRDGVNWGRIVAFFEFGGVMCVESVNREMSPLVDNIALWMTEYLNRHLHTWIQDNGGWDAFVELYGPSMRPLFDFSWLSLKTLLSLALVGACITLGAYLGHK

Usually IC50 stands for the concentration that gives 50% inhibition. For `O=C(c1ccccc1O)c1[nH]c(Cl)c(Cl)c1-n1c(C(=O)c2ccccc2O)cc(Cl)c1Cl` (racemic) [Racemic Marinopyrrole A, reference compound], the half-inhibitory concentration (IC50) with MDA-MB-468 cells (setting [1]) was 2030 ± 180 nM; with MDA-MB-468 cells (setting [2]), 2190 nM and 1840 nM and 2070 nM.
Regarding `O=C(c1ccccc1O)c1[nH]c(Cl)c(Cl)c1-n1c(C(=O)c2ccccc2O)cc(Cl)c1Cl` [(+)-Marinopyrrole A, reference compound], the IC50 in the experiment with MDA-MB-468 cells (setting [1]) was 1880 nM; in the experiment on MDA-MB-468 cells (setting [2]), 2140 nM and 1640 nM.
On to `O=C(c1ccccc1O)c1[nH]c(Cl)c(Cl)c1-n1c(C(=O)c2ccccc2O)cc(Cl)c1Cl` [(−)-Marinopyrrole A, reference compound], for which the 50% inhibitory concentration (IC50) in the experiment with MDA-MB-468 cells (setting [1]) is 3170 nM; with MDA-MB-468 cells (setting [2]) it was 3470 nM and 2870 nM.
With `CC1(C)CCC(c2ccc(Cl)cc2)=C(CN2CCN(c3ccc(C(=O)NS(=O)(=O)c4ccc(N[C@H](CCN5CCOCC5)CSc5ccccc5)c(S(=O)(=O)C(F)(F)F)c4)cc3)CC2)C1` [ABT-263], the “concentration that inhibits Bcl-2” value on Bcl-2 is “subnanomolar concentrations”. Also, at Mcl-1, the “activity on Mcl-1” value is “only weakly target Mcl-1”. In addition, on Bcl-XL, the “concentration that inhibits Bcl-XL” value is on record as “subnanomolar concentrations”.
On to `CN(C)CC[C@H](CSc1ccccc1)Nc1ccc(S(=O)(=O)NC(=O)c2ccc(N3CCN(Cc4ccccc4-c4ccc(Cl)cc4)CC3)cc2)cc1[N+](=O)[O-]` [ABT-737], for which the “concentration that inhibits Bcl-2” value at Bcl-2 is recorded as “subnanomolar concentrations”. Besides, the “activity on Mcl-1” value at Mcl-1 is “only weakly target Mcl-1”. Further, at Bcl-XL, the “concentration that inhibits Bcl-XL” value was “subnanomolar concentrations”.
By inhibition is commonly meant the change of the read-out against control, counted positive when it falls. As to `O=C(c1ccccc1O)c1[nH]c(Cl)c(Cl)c1-n1c(C(=O)c2cc(Cl)ccc2O)cc(Cl)c1Cl` [Compound 1, (5-Chloro-2-hydroxyphenyl)(4,4′,5,5′-tetrachloro-2′-(2-hydroxybenzoyl)-1′H-1,3′-bipyrrol-2-yl)methanone], in the experiment with MDA-MB-468 cells (Homo sapiens), the inhibition at 0.5 µM is 1.6% and the inhibition at 50 µM amounted to 98.3%. The IC50 in the experiment with MDA-MB-468 cells (setting [3]) is 9000 nM.
As for `O=C(c1ccccc1O)c1[nH]c(Cl)c(Cl)c1-n1c(C(=O)c2ccc(Cl)cc2O)cc(Cl)c1Cl` [Compound 2, (4-Chloro-2-hydroxyphenyl)(4,4′,5,5′-tetrachloro-2′-(2-hydroxybenzoyl)-1′H-1,3′-bipyrrol-2-yl)methanone], the concentration for half-maximal inhibition (IC50) with MDA-MB-468 cells (setting [4]) was 1450 nM; with MDA-MB-468 cells (setting [5]), 1720 nM; with MDA-MB-468 cells (setting [2]), 1170 nM.
`O=C(c1ccccc1O)c1[nH]c(Cl)c(Cl)c1-n1c(C(=O)c2cccc(Cl)c2O)cc(Cl)c1Cl` [Compound 3, (3-Chloro-2-hydroxyphenyl)(4,4′,5,5′-tetrachloro-2′-(2-hydroxybenzoyl)-1′H-1,3′-bipyrrol-2-yl)methanone]: the inhibition at 0.5 µM in the experiment with MDA-MB-468 cells (Homo sapiens) came out at 7%. Also, the inhibition at 5 µM with MDA-MB-468 cells (Homo sapiens) came out at 83.4%. Further, the inhibition at 50 µM in the experiment with MDA-MB-468 cells (Homo sapiens) came out at 100%. The IC50 with MDA-MB-468 cells (setting [3]) is 1000 nM; in the experiment on MDA-MB-468 cells (setting [4]) it was 2170 nM; in the experiment on MDA-MB-468 cells (setting [5]), 1950 nM; in the experiment with MDA-MB-468 cells (setting [2]) it was 2390 nM.
Consider `COc1ccccc1C(=O)c1[nH]c(Cl)c(Cl)c1-n1c(C(=O)c2ccc(Cl)cc2OC)cc(Cl)c1Cl` [Compound 5, (4-Chloro-2-methoxyphenyl)(4,4′,5,5′-tetrachloro-2′-(2-methoxybenzoyl)-1′H-[1,3′-bipyrrole]-2-yl)methanone], for which the IC50 in the experiment with MDA-MB-468 cells (setting [4]) amounted to 13200 nM; in the experiment with MDA-MB-468 cells (setting [5]), 14000 nM; in the experiment with MDA-MB-468 cells (setting [2]), 12400 nM.
Taken in the same sequence, the figures for `COc1ccccc1C(=O)c1[nH]c(Cl)c(Cl)c1-n1c(C(=O)c2cc(F)ccc2OC)cc(Cl)c1Cl` [Compound 7] were 11000 nM, 11700 nM and 10200 nM.
Taken in the same sequence, the figures for `O=C(c1ccccc1O)c1[nH]c(Cl)c(Cl)c1-n1c(C(=O)c2cc(F)ccc2O)cc(Cl)c1Cl` [Compound 8] were 2140 nM, 2230 nM and 2050 nM.
Take `COc1cc(OC)c(C(=O)c2cc(Cl)c(Cl)n2-c2c(C(=O)c3ccccc3OC)[nH]c(Cl)c2Cl)cc1Cl` [Compound 9]: the 50% inhibitory concentration (IC50) with MDA-MB-468 cells (setting [5]) amounted to 20400 nM.
`O=C(c1ccccc1O)c1[nH]c(Cl)c(Cl)c1-n1c(C(=O)c2cc3ccccc3c(Cl)c2O)cc(Cl)c1Cl` [Compound 10]: the 50% inhibitory concentration (IC50) in the experiment with MDA-MB-468 cells (setting [4]) amounted to 1700 nM; in the experiment with MDA-MB-468 cells (setting [5]), 1940 nM; in the experiment on MDA-MB-468 cells (setting [2]), 1460 nM.
As to `COc1ccccc1C(=O)c1[nH]c(Cl)c(Cl)c1-n1c(C(=O)c2cc(Cl)c3ccccc3c2O)cc(Cl)c1Cl` [Compound 11], the 50% inhibitory concentration (IC50) in the experiment on MDA-MB-468 cells (setting [5]) came to 10700 nM.
As for `O=C(c1ccccc1O)c1[nH]c(Cl)c(Cl)c1-n1c(C(=O)c2cc(Cl)c3ccccc3c2O)cc(Cl)c1Cl` [Compound 12], the 50% inhibitory concentration (IC50) came out at 1890 nM in the experiment with MDA-MB-468 cells (setting [4]) and 1900 nM with MDA-MB-468 cells (setting [5]).
On to `COc1ccccc1C(=O)c1[nH]c(Cl)c(Cl)c1-n1c(C(=O)c2cccc(Cl)c2O)cc(Cl)c1Cl` [Compound 21], for which, in the experiment on MDA-MB-468 cells (Homo sapiens), the inhibition at 0.5 µM was -0.4% and the inhibition at 50 µM is 99.1%. The half-maximal inhibitory concentration (IC50) in the experiment with MDA-MB-468 cells (setting [3]) was 25000 nM.
For `COc1ccccc1C(=O)c1[nH]c(Cl)c(Cl)c1-n1c(C(=O)c2cc(F)ccc2O)cc(Cl)c1Cl` [Compound 25] the same measures were 2.4%, 95.7% and 28000 nM.
In general, % Inhibition refers to the share of the control response that was lost under treatment. Low readings indicate a response near the control, high ones a response far below the control. For `O=C(c1ccccc1O)c1[nH]c(Cl)c(Cl)c1-n1c(C(=O)c2c([O-])cccc2F)cc(Cl)c1Cl.[Na+]` [Compound 27], in the experiment on MDA-MB-468 cells (0.5 μM), the “% Inhibition at 0.5, 5, 50 μM” value was determined as 3.9%. For the same compound, the inhibition at 50 µM in the experiment on MDA-MB-468 cells (Homo sapiens) was found to be 96.3%. For the same compound, the 50% inhibitory concentration (IC50) with MDA-MB-468 cells (setting [6]) was 25000 nM.
On to `O=C(c1ccccc1O)c1[nH]c(Cl)c(Cl)c1-n1c(C(=O)c2ccc(F)cc2O)cc(Cl)c1Cl` [Compound 30], for which, in the experiment with MDA-MB-468 cells (Homo sapiens), the inhibition at 0.5 µM stood at 10.8%. In addition, in the experiment with MDA-MB-468 cells (Homo sapiens), the inhibition at 5 µM was 78.6%. The inhibition at 50 µM with MDA-MB-468 cells (Homo sapiens) worked out at 94.7%. In addition, the half-inhibitory concentration (IC50) in the experiment with MDA-MB-468 cells (setting [3]) was 1000 nM; with MDA-MB-468 cells (setting [4]), 1040 nM; in the experiment on MDA-MB-468 cells (setting [5]), 940 nM; in the experiment with MDA-MB-468 cells (setting [2]), 1140 nM.
`O=C(c1ccccc1O)c1[nH]c(Cl)c(Cl)c1-n1c(C(=O)c2ccc(F)cc2[O-])cc(Cl)c1Cl.[Na+]` [Compound 31]: the “% Inhibition at 0.5, 5, 50 μM” value worked out at 5.6% with MDA-MB-468 cells (0.5 μM), 63.5% with MDA-MB-468 cells (5 μM) and 99.4% with MDA-MB-468 cells (50 μM). In addition, the half-maximal inhibitory concentration (IC50) was 2000 nM in the experiment with MDA-MB-468 cells (setting [6]); 3150 nM in the experiment with MDA-MB-468 cells (setting [1]); 3970 nM and 2330 nM with MDA-MB-468 cells (setting [2]).
As to `O=C(c1ccccc1O)c1[nH]c(Cl)c(Cl)c1-n1c(C(=O)c2c(O)cccc2F)cc(Cl)c1Cl` [Compound 32], the figures for the “% Inhibition at 0.5, 5, 50 μM” value in the experiment with MDA-MB-468 cells (0.5 μM) and in the experiment with MDA-MB-468 cells (50 μM) were 0% and 87.7%, respectively. Also, the IC50 in the experiment with MDA-MB-468 cells (setting [6]) is 12000 nM.
`O=C(c1ccccc1O)c1[nH]c(Cl)c(Cl)c1-n1c(C(=O)c2cc(Br)ccc2O)cc(Cl)c1Cl` [Compound 33]: in the experiment on MDA-MB-468 cells (Homo sapiens), the inhibition at 0.5 µM turned out to be 10.8%, the inhibition at 5 µM came out at 58.7% and the inhibition at 50 µM amounted to 99.3%. For the same compound, the IC50 in the experiment on MDA-MB-468 cells (setting [3]) is 2000 nM. Further, in the experiment on MDA-MB-468 cells (setting [5]), the IC50 turned out to be 3870 nM.
For `COc1ccc(F)cc1C(=O)c1cc(Cl)c(Cl)n1-c1c(C(=O)O)[nH]c(Cl)c1Cl` [Compound 34], the IC50 in the experiment with MDA-MB-468 cells (setting [5]) was 33500 nM.
The same measure, in the same setting: next, `COc1ccccc1C(=O)c1[nH]c(Cl)c(Cl)c1-n1c(C(=O)c2cccc3ccccc23)cc(Cl)c1Cl` [Compound 35]: 10500 nM; `CCOC(=O)c1[nH]c(Cl)c(Cl)c1-n1c(C(=O)c2ccccc2O)cc(Cl)c1Cl` [Compound 37]: 15700 nM.
`CCOC(=O)c1cc(Cl)c(Cl)n1-c1c(C(=O)c2ccccc2O)[nH]c(Cl)c1Cl` [Compound 38]: the IC50 came out at 2090 nM with MDA-MB-468 cells (setting [4]), 2730 nM in the experiment on MDA-MB-468 cells (setting [5]) and 1440 nM in the experiment on MDA-MB-468 cells (setting [2]).
With `COc1ccc(C(=O)c2[nH]c(Cl)c(Cl)c2-n2c(C(=O)c3ccc(OC)cc3)cc(Cl)c2Cl)cc1` [Compound 39], the IC50 in the experiment with MDA-MB-468 cells (setting [5]) came to 18300 nM.
